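Dose response: 5 concentrations. Exposure: 48 h. Format: 96-well plates. Endpoint: linear interpolation; highest concentration if not reached. GI50 marks 50% less growth. TGI marks complete inhibition of growth.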
Columns and labels:
Test in all cases: NCI tumour cell line growth inhibition, 48 h
HL-60(TB) leukemia = test system: HL-60(TB) leukemia
MDA-MB-435 = test system: MDA-MB-435
RXF 393 renal = test system: RXF 393 renal
OVCAR-4 ovarian = test system: OVCAR-4 ovarian
HOP-92 NSCLC = test system: HOP-92 NSCLC
MALME-3M melanoma = test system: MALME-3M melanoma
T-47D breast = test system: T-47D breast
CCRF-CEM leukemia = test system: CCRF-CEM leukemia
A498 renal = test system: A498 renal
COLO 205 colon = test system: COLO 205 colon

Compound | GI50 (HL-60(TB) leukemia) | TGI (HL-60(TB) leukemia) | GI50 (MDA-MB-435) | TGI (MDA-MB-435) | GI50 (RXF 393 renal) | TGI (RXF 393 renal) | GI50 (OVCAR-4 ovarian) | TGI (OVCAR-4 ovarian) | GI50 (HOP-92 NSCLC) | TGI (HOP-92 NSCLC) | GI50 (MALME-3M melanoma) | TGI (MALME-3M melanoma) | GI50 (T-47D breast) | TGI (T-47D breast) | GI50 (CCRF-CEM leukemia) | TGI (CCRF-CEM leukemia) | GI50 (A498 renal) | TGI (A498 renal) | GI50 (COLO 205 colon) | TGI (COLO 205 colon)
COc1ccc2c(c1)C(=O)/C(=C/c1cccc(OCC(=O)c3ccccc3)c1)O2 | 1.39 µM | 3.23 µM | 3.4 µM | 13.6 µM | 3.26 µM | 8.01 µM | 2.72 µM | 6.37 µM | 3.86 µM | 16.1 µM | 1.95 µM | 4.8 µM | 2.04 µM | 4.88 µM | 0.81 µM | 2.42 µM | 17.3 µM | 31 µM | 1.9 µM | 3.57 µM
Cc1cn(-c2cc(NC(=O)c3cccc(C#Cc4cccc5[nH]nc(N)c45)c3)cc(C(F)(F)F)c2)cn1 | 3.22 µM | 32.6 µM | 3.74 µM | 37 µM | 5.1 µM | 21.6 µM | 2.93 µM | 21.2 µM | 2.67 µM | 9.75 µM | 1.81 µM | 10.9 µM | 3.39 µM | 18.5 µM | 4.88 µM | > 100 µM | 4.09 µM | 82.4 µM | 2.45 µM | 15.8 µM
CCOc1cccc(/C=N/NC(=O)c2cccc(Nc3ccnc(C(F)(F)F)c3)c2)c1O | 0.262 µM | 1.01 µM | 3.1 µM | > 51.2 µM | 1.66 µM | 44.6 µM | 0.723 µM | 48.6 µM | 5.21 µM | > 100 µM | 1.82 µM | 18.9 µM | 0.814 µM | 19 µM | 0.18 µM | > 100 µM | 15 µM | > 76.9 µM | 0.532 µM | 18.4 µM
Nc1ncnc2c1ncn2C1C=C(CO)C(O)C1O (stereo not given) |  | 2.73 µM |  | > 100 µM |  | 42.8 µM |  | > 56.8 µM |  | > 76.1 µM |  | > 100 µM |  | 10.2 µM |  | 14 µM |  | 43.5 µM |  | 19.5 µM
Cc1cc(N(CC(C)Br)CC(C)Br)ccc1N=Nc1ccccc1C(=O)O (stereo not given) |  | 36.6 µM |  | 33.5 µM |  | 4.3 µM |  | 5.53 µM |  | 10 µM |  | 18.6 µM |  | 5 µM |  | > 94.1 µM |  | 3.91 µM |  | 19.7 µM
O=C(/C=C/c1ccccc1)Nc1ncc(Cc2ccccc2Cl)s1 | 0.285 µM | 0.872 µM | 0.0972 µM | 0.344 µM | 0.223 µM | 0.73 µM | > 100 µM | > 100 µM | 1.26 µM | > 100 µM | 0.365 µM | > 100 µM | 0.513 µM | > 100 µM | 0.36 µM | > 100 µM | 0.176 µM | 0.68 µM | 0.366 µM | > 100 µM
CS(=O)(=O)CCNCc1coc(-c2ccc3ncnc(Nc4ccc(OCc5ccccc5)cc4)c3c2)c1 | 4.15 µM | 9.13 µM | 4.11 µM | 8.23 µM | 2.91 µM | 7.27 µM | 5.94 µM | > 25 µM | 2.62 µM | 17.3 µM | 4.71 µM | 9.57 µM | 3.57 µM | 8.03 µM | 4.92 µM | 14.5 µM | 1.49 µM | 6.25 µM | 4.78 µM | 9.84 µM
Oc1ccc2ccccc2c1N=Nc1cccc2ccccc12 |  | > 100 µM |  | > 100 µM |  | > 100 µM |  | > 100 µM |  | > 100 µM |  | > 100 µM |  | > 100 µM |  | > 100 µM |  | > 100 µM |  | > 100 µM
CC/C=C\C[C@H]1CC=C2C(=O)C=C[C@@H]2CC=CCCCC(=O)O[C@@H](CCCCC)CC=C2C(=O)C=C[C@@H]2CC=CCCCC(=O)O[C@@H](CCCCC)CC=C2C(=O)C=C[C@@H]2CC=CCCCC(=O)O[C@@H](CCCCC)CC=C2C(=O)C=C[C@@H]2CC=CCCCC(=O)O1 | 2.09 µM | 6.26 µM | 1.59 µM | 4.54 µM | 1.37 µM | 2.87 µM | 2.2 µM | > 7.9 µM | 1.53 µM | 4.32 µM | 2.77 µM | > 7.9 µM | 1.81 µM | 5.12 µM | 1.65 µM | > 7.9 µM | 2.25 µM | > 7.9 µM | 1.64 µM | 3.6 µM
